The target in one assay is T1, Estrogen receptor (Homo sapiens, UniProt P03372).
T1 sequence (P03372 whole entry): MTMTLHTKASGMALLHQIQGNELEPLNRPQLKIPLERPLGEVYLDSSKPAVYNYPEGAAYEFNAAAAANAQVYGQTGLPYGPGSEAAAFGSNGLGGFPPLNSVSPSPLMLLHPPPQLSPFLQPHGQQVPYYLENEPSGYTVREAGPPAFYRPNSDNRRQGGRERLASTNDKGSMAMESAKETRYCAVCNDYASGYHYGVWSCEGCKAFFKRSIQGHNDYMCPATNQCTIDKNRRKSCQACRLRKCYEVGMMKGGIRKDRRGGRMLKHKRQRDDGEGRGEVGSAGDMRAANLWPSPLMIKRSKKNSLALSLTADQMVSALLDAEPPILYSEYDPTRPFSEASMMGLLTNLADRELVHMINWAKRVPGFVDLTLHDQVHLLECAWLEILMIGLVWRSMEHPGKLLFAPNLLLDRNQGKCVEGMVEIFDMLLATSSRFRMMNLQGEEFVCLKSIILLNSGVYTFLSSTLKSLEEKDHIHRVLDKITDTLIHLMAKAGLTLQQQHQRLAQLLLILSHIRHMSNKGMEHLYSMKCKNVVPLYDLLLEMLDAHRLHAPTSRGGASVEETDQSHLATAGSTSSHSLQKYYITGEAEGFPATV
Put plainly: biochemical.

Another assay addresses Cytochrome P450 2C9 (Homo sapiens, UniProt P11712).
The target of another assay is T2, Cytochrome P450 1A2 (Homo sapiens, UniProt P05177).
T2 sequence (P05177 whole entry): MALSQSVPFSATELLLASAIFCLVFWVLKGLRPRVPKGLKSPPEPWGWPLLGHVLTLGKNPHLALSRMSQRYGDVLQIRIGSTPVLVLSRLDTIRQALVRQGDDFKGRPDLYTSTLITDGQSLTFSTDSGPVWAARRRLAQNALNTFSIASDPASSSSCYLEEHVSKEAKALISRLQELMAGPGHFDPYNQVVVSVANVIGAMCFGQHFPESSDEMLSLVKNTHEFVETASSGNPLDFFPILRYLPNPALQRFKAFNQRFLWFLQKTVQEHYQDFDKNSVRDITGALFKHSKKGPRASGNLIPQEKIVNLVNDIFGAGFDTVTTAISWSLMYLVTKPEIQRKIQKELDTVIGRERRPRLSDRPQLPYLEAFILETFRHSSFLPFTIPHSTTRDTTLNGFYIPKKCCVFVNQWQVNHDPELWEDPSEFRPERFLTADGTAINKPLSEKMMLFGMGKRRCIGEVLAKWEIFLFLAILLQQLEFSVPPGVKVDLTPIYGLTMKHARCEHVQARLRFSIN

This is an account of results in ChEMBL document CHEMBL1909046, “DrugMatrix in vitro pharmacology data”.

Structures are written as SMILES.

Chain of Cytochrome P450 2C9 (P11712 whole entry): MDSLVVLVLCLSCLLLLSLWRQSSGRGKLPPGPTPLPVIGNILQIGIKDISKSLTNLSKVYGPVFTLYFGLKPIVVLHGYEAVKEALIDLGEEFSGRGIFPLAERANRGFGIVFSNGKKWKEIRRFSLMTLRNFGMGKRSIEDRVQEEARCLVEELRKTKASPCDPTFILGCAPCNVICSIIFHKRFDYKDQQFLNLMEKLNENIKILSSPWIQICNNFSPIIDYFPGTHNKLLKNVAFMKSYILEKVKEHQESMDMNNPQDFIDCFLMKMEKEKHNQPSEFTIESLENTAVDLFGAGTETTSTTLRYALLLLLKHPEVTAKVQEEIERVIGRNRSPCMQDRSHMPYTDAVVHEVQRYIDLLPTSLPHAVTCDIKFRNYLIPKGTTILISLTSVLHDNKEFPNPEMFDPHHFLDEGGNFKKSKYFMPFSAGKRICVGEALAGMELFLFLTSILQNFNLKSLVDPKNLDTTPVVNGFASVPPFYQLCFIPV

A word on the IC50: it is the concentration that gives 50% inhibition. A low value points to inhibition by little substance. Usually Ki stands for a measure of affinity in units of concentration, obtained from inhibition or displacement. On Estrogen receptor, `CC[C@]1(O)CC[C@H]2[C@@H]3CCC4=CCCC[C@@H]4[C@H]3CC[C@@]21C` gave an IC50 of 1.12 µM and a Ki of 0.32 µM.
In turn, `O=C(c1ccccc1Cl)N1CCC(Cc2ccccc2)CC1` registered an IC50 against Cytochrome P450 2C9 of 2 µM.
On Estrogen receptor, `O=C(/C=C/c1ccc(O)c(O)c1)OCCc1ccccc1` [CAFFEIC ACID PHENETHYL ESTER] came in with an IC50 of 7.91 µM and a Ki of 2.26 µM.
Compound `COc1cc(CNC(=O)CCCC/C=C/C(C)C)ccc1O` [CAPSAICIN] had an IC50 against Cytochrome P450 1A2 of 3 µM.
Turning to `C#C[C@]1(O)CC[C@H]2[C@@H]3CCC4=Cc5oncc5C[C@]4(C)[C@H]3CC[C@@]21C` [DANAZOL], at Estrogen receptor, 17.8 µM corresponded to half-maximal inhibition (IC50) and the affinity corresponds to a Ki of 5.08 µM.
On to `CC(=O)O[C@]1(C(C)=O)CC[C@H]2[C@@H]3C=C(C)C4=CC(=O)CC[C@]4(C)[C@H]3CC[C@@]21C` [MEGESTROL ACETATE], for which, at Cytochrome P450 2C9, the 50% inhibitory concentration (IC50) was 10 µM.
On to `COc1ccc2cc(CCC(C)=O)ccc2c1` [NABUMETONE], for which, at Cytochrome P450 1A2, inhibition was half-maximal at 5 µM (IC50).
